Values joined by “and” are separate entries in the source; they are usually repeats but may differ in a detail not shown here. Equal entries are not always repeated.
Columns and labels:
Amyloid β 42 = Amyloid β 42 ELISA, whole brain soluble and insoluble fractions; format: in vivo, mouse; parameters: Sup. Fig. 6-6A, individual animal values / Sup. Fig. 6-6B, individual animal values / Sup. Fig. 6-6D, individual animal values / Sup. Fig. 6-6G, individual animal values / Sup. Fig. 6-6H, individual animal values: unit not given here; conditions: for Insoluble amyloid β 42 / Ratio of soluble- to insoluble amyloid β 42 / Soluble amyloid β 42: whole brain, 5xFAD 1 month
Description: Following completion of treatment with YB-537 or vehicle for 1 month in drinking water, mice were sacrificed, and brains were quickly removed and placed on ice. Brains were then bisected, and the cerebellum removed. Both hemispheres were then flash frozen in liquid nitrogen, with one hemisphere being used for Amyloid β 42 detection and the other used for WB. For Amyloid β 42 detection the hemisphere was first weighed, and then homogenised on ice using 1 mL of 0.1% Triton X-100 in TBS with complete protease inhibitor (Roche) and phosphatase inhibitor cocktail (Roche). Homogenates were then centrifuged at 100,000g for 1 h at 4° C, and supernatant containing t he soluble fraction of Amyloid β 42 was collected and stored at - 20° C overnight. The pellet, containing insoluble Amyloid β 42 was re - suspended in 1 mL of 5M guanidine HCl, placed on a rocker at RT f or 2h, and then stored overnight at 4° C, with later storage being done at -20° C. The insoluble fraction was then diluted 1:5 in TBS, and centrifuged for 30 min at 13,000g and 4° C. The resulting supernatant was then used to quantify the insoluble fraction. Protein determination was done on both soluble and insoluble fractions thus prepared, using a BCA kit (Thermo). Human Amyloid (aa1- 42) Quantikine ELISA Kit was then used as per the manufacturer’s instructions (R&D Systems, DAB142). Results obtained were then quantified as ng Amyloid β 42 / mL sample / brain hemisphere weight.
Experimental grouping was randomly allocated, in both rats and mice. The size for each group was based on previously published results by means of similar methods, with the use of an online power calculator (https://www.stat.ubc.ca/~rollin/stats/ssize/n2.html). Shapiro- Wilk normality tests were done for the collected data. Anal ysi s of normally distributed dat a was done using par am et ri c t ests (i .e. - unpaired students t-test, one-way ANOVA followed by Tukey’s or Sidak post hoc anal ys i s) and for data not normally

[1] = Body weight during chronic ingestion; format: in vivo, mouse; conditions: for average weight: over 25 days of consumption; for Sup. Fig. 5-2A, body weight: in g (unit assumed)
Description: Supplementary Figure 6. Chronic Drinking of 50 mg/kg YB -537 for of 1 Month Causes no Changes
in General Mouse Physiology or Behavior but Improves Nesting Behavior Over Time. […]

Compound: Cc1ccc(-c2cn3cccc(C)c3n2)cc1S(=O)(=O)N1CCNCC1 [YB-537]
- Sup. Fig. 6-6A, individual animal values (Amyloid β 42; 5xFAD whole brain, all animals): 0.36 and 0.35 and 1.82 and 1.07 and 0.33 and 5.68 and 2.65 and 2.02 and 0.56
- Sup. Fig. 6-6B, individual animal values (Amyloid β 42; 5xFAD whole brain, all animals): 31.16 and 54.15 and 11052.63 and 8070.79 and 40.92 and 4330.77 and 6642.89 and 15767.97 and 26.71
- Sup. Fig. 6-6C, individual animal values (Amyloid β 42; 5xFAD whole brain, all animals, ratio of 6-6A to 6-6B values): 0.0114 and 0.0064 and 0.000165 and 0.000133 and 0.0080 and 0.0013 and 0.0004 and 0.000128 and 0.0210
- Sup. Fig. 6-6D, individual animal values (Amyloid β 42; 5xFAD whole brain, first subset of the 6-6A animals (sex not given)): 1.07 and 0.33 and 5.68 and 2.65 and 0.56 and 0.35
- Sup. Fig. 6-6F, individual animal values (Amyloid β 42; 5xFAD whole brain, first subset of the 6-6C animals (sex not given), ratio): 0.000133 and 0.0080 and 0.0013 and 0.0004 and 0.0210 and 0.0064
- Sup. Fig. 6-6G, individual animal values (Amyloid β 42; 5xFAD whole brain, second subset of the 6-6A animals (sex not given)): 2.02 and 0.36 and 1.82
- Sup. Fig. 6-6H, individual animal values (Amyloid β 42; 5xFAD whole brain, second subset of the 6-6B animals (sex not given)): 15767.97 and 31.16 and 11052.63
- Sup. Fig. 6-6I, individual animal values (Amyloid β 42; 5xFAD whole brain, second subset of the 6-6C animals (sex not given), ratio): 0.000128 and 0.0114 and 0.000165
- Insoluble amyloid β 42 (Amyloid β 42; both sexes): insignificantly reduced
- Ratio of soluble- to insoluble amyloid β 42 (Amyloid β 42; both sexes): insignificantly increased
- Soluble amyloid β 42 (Amyloid β 42; both sexes): insignificantly reduced
- Insoluble amyloid β 42 (Amyloid β 42; female): insignificantly reduced
- Soluble amyloid β 42 (Amyloid β 42; female): insignificantly reduced
- Insoluble amyloid β 42 (Amyloid β 42; male): insignificantly reduced
- Ratio of soluble- to insoluble amyloid β 42 (Amyloid β 42; male): insignificantly increased
- Soluble amyloid β 42 (Amyloid β 42; male): insignificantly reduced
- average weight ([1]; 5xFAD females): 22.76 ± 0.192 g
- average weight ([1]; 5xFAD males): 32.56 ± 0.279 g
- Sup. Fig. 5-2A, body weight ([1]; Female, Day 1): 23 and 22 and 24 and 25 and 21 and 20
- Sup. Fig. 5-2A, body weight ([1]; Female, Day 3): 25 and 20 and 24 and 23
- Sup. Fig. 5-2A, body weight ([1]; Female, Day 5): 25 and 21 and 27 and 24 and 20
- Sup. Fig. 5-2A, body weight ([1]; Female, Day 9): 24 and 20 and 25 and 27 and 22
- Sup. Fig. 5-2A, body weight ([1]; Female, Day 11): 23 and 21 and 25 and 26 and 22
- Sup. Fig. 5-2A, body weight ([1]; Female, Day 15): 25 and 22 and 26 and 23 and 24
- Sup. Fig. 5-2A, body weight ([1]; Female, Day 16): 23 and 20 and 24
- Sup. Fig. 5-2A, body weight ([1]; Female, Day 18): 23 and 21 and 24 and 22 and 20
- Sup. Fig. 5-2A, body weight ([1]; Female, Day 25): 25 and 22 and 23 and 21
- Sup. Fig. 5-2A, body weight ([1]; Male, Day 1): 34 and 42 and 33 and 36 and 31 and 28
- Sup. Fig. 5-2A, body weight ([1]; Male, Day 3): 33 and 41 and 32 and 35 and 30 and 26
- Sup. Fig. 5-2A, body weight ([1]; Male, Day 5): 33 and 40 and 32 and 35 and 30 and 26 and 34 and 31
- Sup. Fig. 5-2A, body weight ([1]; Male, Day 9): 31 and 39 and 32 and 33 and 30 and 27 and 35
- Sup. Fig. 5-2A, body weight ([1]; Male, Day 11): 31 and 32 and 34 and 30 and 28 and 35
- Sup. Fig. 5-2A, body weight ([1]; Male, Day 15): 32 and 39 and 34 and 31 and 28 and 36
- Sup. Fig. 5-2A, body weight ([1]; Male, Day 18): 32 and 37 and 29 and 30 and 33 and 27 and 35
- Sup. Fig. 5-2A, body weight ([1]; Male, Day 25): 32 and 39 and 31 and 34 and 27

Source: PMC10541198, “Specific quinone reductase 2 inhibitors reduce metabolic burden and reverse Alzheimer’s disease phenotype in mice” (The Journal of Clinical Investigation, 2023)
